For orientation: IC50 means the point on the concentration scale where inhibition reaches its midpoint.

Assay [1] concerns KB. The assay can be described thus: Cytotoxicity against human KB cells after 4 hrs by MTT assay. Format: functional, cell-based.
A short description of assay [2]: Cytotoxicity against human U87 cells after 4 hrs by MTT assay. Format: functional, cell-based, U-87MG ATCC. As to conditions: U-87 MG. (Tetrazolium dyes change colour on reduction, which living cells bring about.)
The test system of assay [3] is MCF7. The assay can be described thus: Cytotoxicity against human MCF7 cells after 4 hrs by MTT assay. As to conditions: MCF7, 4 h. Format: functional, cell-based.
Assay [4] deals with K562. Briefly: Cytotoxicity against human K562 cells after 4 hrs by MTT assay. Type of assay: functional, cell-based. The note with it: K562, 4 h.
Assay [5] is described as follows: Cytotoxicity against human EVC304 cells after 4 hrs by MTT assay. Type of assay: cell-based. As to conditions: EVC304, 4 h.
For a further assay, the system named is H9c2. Briefly: Cytotoxicity against rat H9c2 cells after 4 hrs by MTT assay. Format: cell-based. As to conditions: H9c2, 4 h.
Assay [6] is described as follows: Cytotoxicity against human HL-7702 cells after 4 hrs by MTT assay. Type of assay: cell-based. The note with it: L02, 4 h.
Assay [7] relates to K562. The assay can be described thus: Anticancer activity against human K562 cells assessed as membrane surface blebs at 5 uM after 15 to 30 mins by time-lapse microscopy. Format: functional, cell-based.
The subject of assay [8] is K562. The assay can be described thus: Anticancer activity against human K562 cells assessed as loss of cell membrane integrity after 12 hrs by propidium iodide staining-based fluorescence microscopy. Format: functional.
Assay [9] concerns K562. Briefly: Anticancer activity against human K562 cells assessed as membrane surface blebs at 5 uM after 30 to 60 mins by time-lapse microscopy. Format: functional, cell-based.
Assay [10] concerns K562. The assay can be described thus: Anticancer activity against human K562 cells assessed as loss of plasma membrane integrity at 5 uM after 10 mins by LDH release assay. Format: functional, cell-based. Background: LDH in the medium is a marker of cell lysis.
Assay [11] relates to K562. The assay can be described thus: Anticancer activity against human K562 cells assessed as loss of plasma membrane integrity at 5 uM after 180 mins by LDH release assay. Format: functional, cell-based.
Assay [12] relates to MCF7. The assay can be described thus: Anticancer activity against human MCF7 cells assessed as loss of microtubules and actin microfilaments after 12 hrs by immunostaining. Type of assay: functional, cell-based.
Assay [13] has as its system MCF7. Briefly: Anticancer activity against human MCF7 cells assessed as loss of plasma membrane integrity at 5 uM after 10 mins by LDH release assay. Type of assay: functional, cell-based.
The test system of assay [14] is KB. The assay can be described thus: Anticancer activity against human KB cells assessed as loss of cell membrane integrity after 12 hrs by propidium iodide staining-based fluorescence microscopy. Type of assay: functional.
Assay [15] deals with MCF7. The assay can be described thus: Anticancer activity against human MCF7 cells assessed as loss of plasma membrane integrity at 5 uM after 180 mins by LDH release assay. Format: functional, cell-based.

Calls of active or inactive are those of the source. The calls are words filed in the database; no cut-off is given here.

For the compound `C[C@@H]1O[C@@H](O[C@H]2[C@H](O[C@H]3CC[C@]4(C)[C@H]5CC[C@]6(C)C(=CC[C@@]7(C)CCC(C)(C)C[C@H]76)[C@]5(C)CC[C@H]4C3(C)C)O[C@H](CO)[C@H](O)[C@@H]2O[C@@H]2OC[C@@H](O)[C@H](O)[C@H]2O)[C@H](O)[C@H](O)[C@H]1O`, the IC50 (with KB [1]; in assay [2]; with MCF7 [3]; with K562 [4]) was greater than 40 µM each time.

As to `CC(C)CCC[C@@H](C)[C@H]1CC[C@H]2[C@@H]3CC=C4C[C@@H](O[C@@H]5O[C@H](CO)[C@H](O)[C@H](O[C@@H]6OC[C@@H](O)[C@H](O)[C@H]6O)[C@H]5O[C@@H]5O[C@@H](C)[C@H](O)[C@@H](O)[C@H]5O)CC[C@]4(C)[C@H]3CC[C@]12C`, the IC50 in [5] is greater than 20 µM; with H9c2, greater than 20 µM; in the assay with KB [1], 16.3 µM; in [2], 16.5 µM; in the assay with MCF7 [3], 9.48 µM; in assay [6], greater than 20 µM. Moreover, in the assay on K562 [4], the 50% inhibitory concentration (IC50) is 11.3 µM.

Regarding `C=C(C)[C@@H]1CC[C@]2(C)CC[C@]3(C)[C@H](CC[C@@H]4[C@@]5(C)CC[C@H](O[C@@H]6O[C@H](CO)[C@H](O)[C@H](O[C@@H]7OC[C@@H](O)[C@H](O)[C@H]7O)[C@H]6O[C@@H]6O[C@@H](C)[C@H](O)[C@@H](O)[C@H]6O)C(C)(C)[C@@H]5CC[C@]43C)[C@@H]12`, the IC50 (with KB [1]; in assay [2]; with MCF7 [3]; in the assay with K562 [4]) was greater than 40 µM throughout.

On to `C[C@@H]1CC[C@@]2(OC1)O[C@H]1C[C@H]3[C@@H]4CC=C5C[C@@H](O[C@@H]6O[C@H](CO)[C@H](O)[C@H](O[C@@H]7OC[C@@H](O)[C@H](O)[C@H]7O)[C@H]6O[C@@H]6O[C@@H](C)[C@H](O)[C@@H](O)[C@H]6O)CC[C@]5(C)[C@H]4CC[C@]3(C)[C@H]1[C@@H]2C` [INDIOSIDE E], for which the IC50 was 3.93 µM in assay [5]; greater than 20 µM with H9c2; 1.71 µM in the assay with KB [1]; 2.48 µM in [2]; 1.82 µM in the assay on MCF7 [3]; 4.81 µM in assay [6]. Moreover, the IC50 in the assay on K562 [4] worked out at 3.74 µM.

`CC[C@H](CC[C@@H](C)[C@H]1CC[C@H]2[C@@H]3CC=C4C[C@@H](O[C@@H]5O[C@H](CO)[C@H](O)[C@H](O[C@@H]6OC[C@@H](O)[C@H](O)[C@H]6O)[C@H]5O[C@@H]5O[C@@H](C)[C@H](O)[C@@H](O)[C@H]5O)CC[C@]4(C)[C@H]3CC[C@]12C)C(C)C`: the IC50 (in the assay on KB [1]; in assay [2]; with MCF7 [3]; in the assay with K562 [4]) was greater than 40 µM in each case.

For `C[C@@H]1CC[C@@]2(OC1)O[C@H]1C[C@H]3[C@@H]4CC[C@H]5C[C@@H](O[C@@H]6O[C@H](CO)[C@H](O)[C@H](O[C@@H]7OC[C@@H](O)[C@H](O)[C@H]7O)[C@H]6O[C@@H]6O[C@@H](C)[C@H](O)[C@@H](O)[C@H]6O)CC[C@]5(C)[C@H]4CC[C@]3(C)[C@H]1[C@@H]2C`, the outcome in the assay with K562 [7] was inactive. Further, the outcome in the assay on K562 [8], with K562 [9], in the assay on K562 [10], in the assay with K562 [11], with MCF7 [12] and in the assay on MCF7 [13] was Active. Further, the result with KB [14] and in the assay with MCF7 [15] was Active. The IC50 in assay [5] was 1.03 µM; with H9c2, greater than 20 µM; in the assay on KB [1], 1.32 µM; in assay [2] it was 3.12 µM; with MCF7 [3] it was 2.61 µM; in assay [6], 6.92 µM. In the assay on K562 [4], this compound registered a concentration for half-maximal inhibition (IC50) of 3.77 µM.

The values are drawn from ChEMBL document CHEMBL1641484, “Efficient synthesis of trisaccharide saponins and their tumor cell killing effects through oncotic necrosis” (Bioorg Med Chem Lett, 2011).
